In US20250214932A1, “T-TYPE CALCIUM CHANNEL MODULATORS COMPRISING AN AZASPIRONONANE CORE AND METHODS OF USE THEREOF” (Praxis Precision Medicines, Inc., priority 2022, published 2025):

Biological target: Human Cav3.1 (Homo sapiens (Human), UniProt O43497)
Assay: Human Cav3.1 calcium channel patch clamp assay (SyncroPatch 384PE, HEK-293 natClytin/TASK1+Cav3.1 cell line)
Type: cell-based
Settings: voltage dependent block (VDB); read-out: Cav3.1 (VDB) IC50
Protocol: Pulse generation and data collection were performed with PatchController384 V1.3.0 and DataController384 V1.2.1 (Nanion Technologies). Off-line analysis was performed using Excel and Graphpad Prism (V 8.4.2) with complete data files uploaded to Dotmatics. The access resistance and apparent membrane capacitance were estimated using built-in protocols. Current was recorded in whole cell configuration from a population of cells. The cells were lifted, triturated, and resuspended at 800,000 cells/ml. The cells were allowed to recover in the cell hotel prior to experimentation. Currents were recorded at room temperature. The external solution contained the following (in mM): NaCl 80, NMDG 60, KCl 4, MgCl2 1, CaCl2 6, glucose 5 and HEPES 10 (pH=7.4, Osmolarity ˜300 mOsm). The extracellular solution was used as the wash, reference and compound delivery solution. […] The compound plate was created at 2× concentrated in the extracellular solution. The compound was diluted to 1:2 when added to the recording well. The amount of DMSO in the extracellular solution was held constant at the level used for the highest tested concentration. For the voltage clamp experiments on Cav3.1, data were sampled at 10 KHz. After establishment of the seal and the passage in the whole cell configuration, the cells were held at −120 mV. Cav3.1 current was evoked using a 100 ms step to −20 mV (to measure resting state block), followed by a 1600 ms step to −65 mV and a second 100 ms step to −20 mV (to measure voltage dependent block). The voltage protocol was applied every 15 seconds in the absence and in the presence of the compounds under investigation. […] Current amplitude (pA) was measured in the peak 1 and 2. The average of last 3 sweeps of each liquid period (vehicle, compound under investigation, full block) was calculated. Nickel-sensitive current was used to calculate the % of inhibition in the presence of the compound under investigation.
Pulse generation and data collection were performed with PatchController384 V1.3.0 and DataController384 V1.2.1 (Nanion Technologies). Off-line analysis was performed using Excel and Graphpad Prism (V 8.4.2) with complete data files uploaded to Dotmatics. The access resistance and apparent membrane capacitance were estimated using built-in protocols. Current was recorded in whole cell configuration from a population of cells.
The cells were lifted, triturated, and resuspended at 800,000 cells/ml. The cells were allowed to recover in the cell hotel prior to experimentation. Currents were recorded at room temperature. The external solution contained the following (in mM): NaCl 80, NMDG 60, KCl 4, MgCl2 1, CaCl2 6, glucose 5 and HEPES 10 (pH=7.4, Osmolarity ˜300 mOsm). The extracellular solution was used as the wash, reference and compound delivery solution.
The compound plate was created at 2× concentrated in the extracellular solution. The compound was diluted to 1:2 when added to the recording well. The amount of DMSO in the extracellular solution was held constant at the level used for the highest tested concentration. For the voltage clamp experiments on Cav3.1, data were sampled at 10 KHz. After establishment of the seal and the passage in the whole cell configuration, the cells were held at −120 mV. Cav3.1 current was evoked using a 100 ms step to −20 mV (to measure resting state block), followed by a 1600 ms step to −65 mV and a second 100 ms step to −20 mV (to measure voltage dependent block). The voltage protocol was applied every 15 seconds in the absence and in the presence of the compounds under investigation. […] Current amplitude (pA) was measured in the peak 1 and 2. The average of last 3 sweeps of each liquid period (vehicle, compound under investigation, full block) was calculated. Nickel-sensitive current was used to calculate the % of inhibition in the presence of the compound under investigation.

Sequence of Human Cav3.1 (O43497 whole entry): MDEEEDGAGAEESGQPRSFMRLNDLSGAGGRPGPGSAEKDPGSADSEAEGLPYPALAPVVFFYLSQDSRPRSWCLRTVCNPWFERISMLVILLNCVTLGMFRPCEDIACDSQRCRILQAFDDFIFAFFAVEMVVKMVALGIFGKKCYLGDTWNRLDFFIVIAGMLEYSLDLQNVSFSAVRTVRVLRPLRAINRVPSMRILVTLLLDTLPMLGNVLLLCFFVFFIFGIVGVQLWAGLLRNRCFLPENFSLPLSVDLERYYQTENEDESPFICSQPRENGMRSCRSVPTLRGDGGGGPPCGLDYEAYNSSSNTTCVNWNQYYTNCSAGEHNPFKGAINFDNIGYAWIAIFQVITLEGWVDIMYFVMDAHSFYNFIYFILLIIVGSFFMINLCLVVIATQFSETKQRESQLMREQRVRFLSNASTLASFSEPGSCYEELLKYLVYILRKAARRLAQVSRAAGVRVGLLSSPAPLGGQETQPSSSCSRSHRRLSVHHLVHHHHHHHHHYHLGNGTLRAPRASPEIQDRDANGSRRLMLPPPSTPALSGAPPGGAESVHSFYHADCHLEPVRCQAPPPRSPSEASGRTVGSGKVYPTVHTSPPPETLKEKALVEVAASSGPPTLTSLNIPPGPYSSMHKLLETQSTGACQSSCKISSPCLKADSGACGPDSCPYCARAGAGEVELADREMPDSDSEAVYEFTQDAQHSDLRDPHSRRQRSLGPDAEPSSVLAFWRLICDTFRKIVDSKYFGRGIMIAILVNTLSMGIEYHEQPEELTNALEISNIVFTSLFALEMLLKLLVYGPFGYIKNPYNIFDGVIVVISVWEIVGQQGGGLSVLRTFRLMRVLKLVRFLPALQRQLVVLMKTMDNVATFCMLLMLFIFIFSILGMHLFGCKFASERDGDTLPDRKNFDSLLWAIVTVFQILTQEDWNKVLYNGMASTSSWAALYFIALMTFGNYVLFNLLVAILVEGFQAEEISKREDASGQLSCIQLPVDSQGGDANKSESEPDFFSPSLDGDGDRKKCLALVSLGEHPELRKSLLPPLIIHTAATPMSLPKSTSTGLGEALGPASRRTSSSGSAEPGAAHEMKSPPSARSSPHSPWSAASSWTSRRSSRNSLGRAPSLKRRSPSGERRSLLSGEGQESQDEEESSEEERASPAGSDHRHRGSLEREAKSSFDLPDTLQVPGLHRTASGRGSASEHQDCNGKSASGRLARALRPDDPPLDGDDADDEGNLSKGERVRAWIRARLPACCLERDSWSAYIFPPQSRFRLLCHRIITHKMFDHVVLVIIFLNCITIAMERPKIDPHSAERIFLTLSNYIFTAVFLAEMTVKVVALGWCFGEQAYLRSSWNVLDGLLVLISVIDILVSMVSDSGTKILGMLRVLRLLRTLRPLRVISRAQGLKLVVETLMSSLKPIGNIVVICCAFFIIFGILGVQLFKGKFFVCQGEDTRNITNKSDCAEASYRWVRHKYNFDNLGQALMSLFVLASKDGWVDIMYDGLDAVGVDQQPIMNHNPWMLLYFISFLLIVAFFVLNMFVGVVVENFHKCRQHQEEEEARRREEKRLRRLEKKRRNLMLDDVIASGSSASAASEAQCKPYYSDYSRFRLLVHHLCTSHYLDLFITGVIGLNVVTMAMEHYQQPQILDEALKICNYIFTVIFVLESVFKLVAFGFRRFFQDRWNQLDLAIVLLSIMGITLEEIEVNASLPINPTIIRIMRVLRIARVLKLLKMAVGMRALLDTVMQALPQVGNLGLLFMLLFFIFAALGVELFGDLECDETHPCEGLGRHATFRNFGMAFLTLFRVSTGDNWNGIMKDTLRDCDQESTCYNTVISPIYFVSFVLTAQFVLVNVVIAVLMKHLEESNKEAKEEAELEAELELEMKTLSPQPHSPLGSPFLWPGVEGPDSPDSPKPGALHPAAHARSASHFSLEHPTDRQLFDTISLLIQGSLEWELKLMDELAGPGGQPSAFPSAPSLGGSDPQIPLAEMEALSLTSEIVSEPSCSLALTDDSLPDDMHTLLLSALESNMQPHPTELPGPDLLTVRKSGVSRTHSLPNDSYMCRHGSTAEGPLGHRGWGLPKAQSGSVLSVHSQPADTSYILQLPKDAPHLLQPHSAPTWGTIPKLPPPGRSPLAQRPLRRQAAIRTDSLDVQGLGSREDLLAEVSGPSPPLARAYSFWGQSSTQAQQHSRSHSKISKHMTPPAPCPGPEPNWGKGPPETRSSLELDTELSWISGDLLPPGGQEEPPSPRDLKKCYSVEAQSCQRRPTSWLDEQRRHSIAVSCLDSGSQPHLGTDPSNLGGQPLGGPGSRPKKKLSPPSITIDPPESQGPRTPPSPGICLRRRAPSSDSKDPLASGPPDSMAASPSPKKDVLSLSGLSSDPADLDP

| Structure (SMILES) | IC50 [nM] |
| --- | --- |
| O=C(CN1CC2(CCC(C(=O)Nc3ccc(F)c(OC(F)F)c3)CC2)C1)NC1(C(F)(F)F)CC1 [Example 124] | 149 |
| COc1cc(NC(=O)C2CCC3(CC2)CN(CC(=O)NC2(C(F)(F)F)CC2)C3)ccc1F [Example 125] | 588 |
| O=C(CN1CC2(CCC(C(=O)Nc3ccc(F)c(C(F)(F)F)c3)CC2)C1)NC1(C(F)(F)F)CC1 [Example 126] | 723 |
| O=C(CN1CC2(CCC(C(=O)Nc3ccc(F)c(C(F)F)c3)CC2)C1)NC1(C(F)(F)F)CC1 [Example 127] | 492 |
| N#CC1(CN2CC3(CCC(C(=O)Nc4cc(Cl)cc(Cl)c4)CC3)C2)CC1 [Example 128] | 572 |
| N#CC1(CN2CC3(CCC(C(=O)Nc4cc(F)cc(Cl)c4)CC3)C2)CCCC1 [Example 130] | 296 |
| N#CC1(CN2CC3(CCC(C(=O)NCc4cc(F)cc(Cl)c4)CC3)C2)CCCCC1 [Example 131] | 664 |
| Cc1cc(NC(=O)C2CCC3(CC2)CN(CC(=O)NC2(C(F)(F)F)CC2)C3)ccc1F [Example 132] | 400 |
| N#CC1(CN2CC3(CCC(C(=O)Nc4cc(F)cc(OC(F)F)c4)CC3)C2)CCCCC1 [Example 133] | 432 |
| N#CC1(CN2CC3(CCC(C(=O)Nc4cc(F)cc(C(F)F)c4)CC3)C2)CC1 [Example 134] | 1500 |
| N#CC1(CN2CC3(CCC(C(=O)Nc4cc(F)cc(OC(F)F)c4)CC3)C2)CC1 [Example 135] | 1010 |
| Cc1cc(Cl)cc(NC(=O)C2CCC3(CC2)CN(CC2(C#N)CC2)C3)c1 [Example 136] | 991 |
| N#CC1(CN2CC3(CCC(C(=O)Nc4cc(Cl)cc(OC(F)F)c4)CC3)C2)CC1 [Example 137] | 1260 |
| COc1cc(F)cc(NC(=O)C2CCC3(CC2)CN(CC2(C#N)CC2)C3)c1 [Example 138] | 2270 |
| N#CC1(CN2CC3(CCC(C(=O)Nc4cc(F)cc(Cl)c4)CC3)C2)CCOCC1 [Example 139] | 1370 |
| O=C(CN1CC2(CCC(C(=O)Nc3cc(F)cc(Cl)c3)CC2)C1)NC1(C(F)F)CC1 [Example 140] | 283 |
| Cc1cc(Cl)cc(NC(=O)C2CCC3(CC2)CN(CC2(C#N)CCOCC2)C3)c1 [Example 141] | 1200 |
| N#CC1(CN2CC3(CCC(C(=O)Nc4cc(F)cc(Cl)c4)CC3)C2)CCOC1 (stereo not shown) [Example 142] | 2230 |

| Structure (SMILES) | IC50 [nM] |
| --- | --- |
| O=C(CN1CC2(CCC(CNC(=O)c3cc(F)cc(Cl)c3)CC2)C1)NC1(C(F)(F)F)CC1 [Example 143] | 373 |
| Cc1cc(F)cc(C(=O)NCC2CCC3(CC2)CN(CC(=O)NC(C)(C)C)C3)c1 [Example 144] | 804 |
| CC(C)(C)NC(=O)CN1CC2(CCC(CNC(=O)c3cccc(Cl)c3)CC2)C1 [Example 145] | 569 |
| CC(C)(NC(=O)CN1CC2(CCC(CNC(=O)c3cccc(Cl)c3)CC2)C1)C(F)(F)F [Example 146] | 435 |
| O=C(CN1CC2(CCC(CNC(=O)c3cccc(Cl)c3)CC2)C1)NC1(C(F)(F)F)CC1 [Example 147] | 534 |
| O=C(CN1CC2(CCC(C(=O)NC34CCC(CC3)CC4)CC2)C1)NC1(C(F)(F)F)CC1 [Example 148] | 357 |
| O=C(NC12CCC(CC1)CC2)C1CCC2(CC1)CN(CC1(F)CCC(F)(F)CC1)C2 [Example 149] | 688 |
| O=C(CN1CC2(CCC(C(=O)NC34CCC(CC3)C4)CC2)C1)NC1(C(F)(F)F)CC1 [Example 150] | 1960 |
| O=C(CN1CC2(CCC(C(=O)NC34CC5CC(CC(C5)C3)C4)CC2)C1)NC1(C(F)(F)F)CC1 [Example 151] | 404 |
| CC(C)(C)C(O)CN1CC2(CCC(C(=O)NC34CC5CC(CC(C5)C3)C4)CC2)C1 (stereo not shown) [Example 152] | 583 |
| CC(C)(C)CCN1CC2(CCC(C(=O)NC34CC5CC(CC(C5)C3)C4)CC2)C1 [Example 154] | 1290 |
| O=C(NC12CCC(CC1)CC2)C1CCC2(CC1)CN(CC1(O)CCC(F)(F)CC1)C2 [Example 155] | 606 |
| COc1cc(NC(=O)C2CCC3(CC2)CN(CC(=O)NC(C)(C)C)C3)ccc1F [Example 156] | 300 |
| COc1cc(NC(=O)C2CCC3(CC2)CN(CC(=O)NC(C)(C)C)C3)ccc1Cl [Example 157] | 129 |
| COc1cc(NC(=O)C2CCC3(CC2)CN(CC(=O)NC2(C(F)(F)F)CC2)C3)ccc1Cl [Example 158] | 162 |
| COc1cc(Cl)cc(NC(=O)C2CCC3(CC2)CN(CC(=O)NC(C)(C)C)C3)c1 [Example 159] | 159 |
| COc1cc(Cl)cc(NC(=O)C2CCC3(CC2)CN(CC(=O)NC2(C(F)(F)F)CC2)C3)c1 [Example 160] | < 78.2 |
| CC(C)(C)CCN1CC2(CCC(C(=O)Nc3cc(F)cc(Cl)c3)CC2)C1 [Example 161] | 252 |

Test system: absence seizures
Assay: not given
Settings: patients treated with either of these drugs; cited from earlier work

| Structure (SMILES) | intolerable side effects, patients affected [%] |
| --- | --- |
| CCCC(CCC)C(=O)O [valproate] | 24 |
